The results in this text go back to US20250186475A1, “METHODS OF TREATING MEDICAL CONDITIONS USING ISLATRAVIR OR A RELATED COMPOUND” (ROME Therapeutics, Inc., priority 2022, published 2025).

The term IC50 denotes the concentration at which inhibition is half-maximal.

The target of experiment [1] is T1, recombinant MBP-tagged LINE1 protein (238-1061) (Homo sapiens, UniProt O00370).
T1 construct: recombinant MBP-tagged LINE1 protein (238-1061); MBP; made in house
Put plainly: Homogeneous time-resolved fluorescence (HTRF) LINE1 RT assay. It is filed as biochemical. The note with it: 25° C., 60 minutes, read-out: IC50 for inhibition of LINE1 reverse transcriptase. The procedure: The LINE1 reverse transcriptase homogeneous time-resolved fluorescence (HTRF) assay was performed with recombinant MBP-tagged LINE1 protein (238-1061) (generated and purified according to procedures in Dai L. et al. BMC Biochemistry 2011; 12:18) in a 384-well format. Test compound was serially diluted in DMSO and further diluted in the assay buffer (50 mM Tris-HCl, 50 mM KCl, 10 mM MgCl2, 10 mM DTT, pH 8.1) to achieve a final DMSO concentration of 1%. The serially diluted compound was mixed with 64 ng/well of LINE1 enzyme, 5 nM of pre-annealed template/biotin-primer pair (synthesized at Generay Biotechnology), 10 nM of Fluorescein-12-dATP fluorescent probe (Perkin Elmer), and 1 μM dGTP/dCTP/dTTP (Thermo Fisher Scientific) in the assay buffer. The template/biotin-primer sequences were as follows:
After incubating at 25° C. for 60 minutes, the detection reagent (20 mM EDTA with streptavidin-terbium cryptate, Cisbio Bioassay) in the PPI buffer (Cisbio Bioassay) was added, and the mixture was incubated at 25° C. for 30 minutes. At the end of the incubation, fluorescence was read at ex/em=337/485 nm and ex/em=337/520 nm on an Envision 2104 plate reader (Perkin Elmer). The fluorescence ratio at 520/485 nm was used for the calculation. […] The IC50 was calculated by fitting the compound dose inhibition curve with a 4-parameter non-linear regression equation.

Experiment [2] addresses T2, LINE1 reverse transcriptase (Homo sapiens, UniProt O00370).
T2 construct: expressed in transfected cells
Put plainly: Transient artificial-intron Cis LINE1 reporter assay. The format is cell-based. The note with it: HEK 293 cells, FLuc/RLuc ratio, read-out: IC50 for inhibition of FLuc luminescence. The procedure: Intron-disrupted Firefly luciferase (FLuc) expression cassettes were generated as described by Xie, Y. et al. “Characterization of L1 retrotransposition with high-throughput dual-luciferase assays,” Nucleic Acid Res. (2011) Vol. 39, No. 3, e16. In addition, the plasmid contained an intact Renilla luciferase (RLuc) expression cassette on the vector backbone, in order to normalize transfection efficiency and measure potential cell toxicity.
HEK 293 cells were seeded in 96-well plates at 1,000 cells/well in 55 μL and grown for 24 hours. Cells were transfected with FuGeneHD (Promega) following the manufacturer's protocol. Each well received 0.133 ng plasmid, 0.4 μL FuGeneHD reagent, and 4.5 μL GlutaMAX-I-supplemented Opti-MEM I reduced-serum medium (Invitrogen). Cells were simultaneously treated with test compound serially diluted starting at 100 μM in a 3-fold dilution dose response.
Luminescence was measured using the Dual-Glo Luciferase Assay System (Promega) following the manufacturer's instructions. The ratio between FLuc and RLuc gene expression was used to report LINE1 activity.
Background: Reporter assays use an easily measured gene product as a stand-in for the process of interest.

Experiment [3] deals with THP1-Dual™ KO-TREX1 cells. The experiment is described as follows: Cellular assay for altering IFN production in THP1 TREX1 KO cells. It is filed as cell-based. The note with it: in the presence of 1 μM 5-aza-2′-deoxycytidine, five days. The procedure:
(§1) THP1-Dual™ KO-TREX1 cells were purchased from Invivogen (cat #thpd-kotrex). The THP1-Dual™ KO-TREX1 cells were cultured in RPMI 1640, 10% heat-inactivated fetal bovine serum, 25 mM HEPES, 10 μg/mL Blasticidin, and 100 μg/mL Zeocin. THP1-Dual™ KO-TREX1 cells were treated with a dose titration of test compound in the presence of 1 μM 5-aza-2′-deoxycytidine (Sigma, cat #189825). Type 1 Interferon and cell viability were assessed after five days of treatment.
(§2) Stock solution of test compound was prepared in DMSO followed by a three-fold dilution in DMSO. Additional 50× dilution was prepared in cell culture media for each dilution. 10 μL of diluted test compound was then added to a 384-well plate.
THP1-Dual™ KO-TREX1 cells were treated with 1 μM 5-aza-2′-deoxycytidine. THP1-Dual™ KO-TREX1 cells (50 μL) were added to each well of the 384-well plate containing test compound titration at 10,000 cells/well. Cells were incubated at 37° C., 5% CO2 in a humidified incubator for five days. On day five, 20 μL of cell supernatant was transferred to a 384-well, white-walled plate, followed by addition to each well of 50 μL of QUANTI-LUC solution containing stabilizer. Luminescence was detected on a plate reader according to manufacturer's instructions. […]

In experiment [4] the test system is IFN-β production in PBMCs. Put plainly: Decitabine-stimulated human PBMC assay. It is filed as cell-based. The note with it: PBMCs with anti-CD3/anti-CD28 and 10 μM decitabine, 5 days. The procedure: EasySep buffer (32 mL, Stem Cell, cat. #20144) was used to dilute 8 mL of LRSC buffy coat (from fresh Leukopak) with gentle mixing. The diluted buffy coat (20 mL) was transferred into each of two SepMate 50 tubes, and the tubes were filled with 15 mL of Lyphoprep (Stem Cell, ct. #07851) density gradient. The SepMate tubes were then centrifuged at […] for 10 minutes at room temperature with the brake on. The top layer of supernatant was collected in SepMate tubes by quickly pouring it into a new 50 mL conical tube. The PBMCs were washed with EasySep buffer x2 by centrifuging at 300G for 5 minutes. The cells were resuspended in 30 mL of EasySep and centrifuged at 100G for 5 minutes with the brake off, and the platelets were removed. The cells were then resuspended in 6 mL of 1×RBC lysis buffer (InvitroGen) and incubated at 37° C. for 5 minutes. Then, 25 mL of EasySep buffer was mixed into the tube and it was centrifuged at 300G for 5 minutes. The cells were resuspended in 10 mL of EasySep buffer and the cells were then counted with Cellometer (AO/PI). The PBMCs were resuspended in RPMI1640 (ThermoFisher)+10% FBS (HyClone)+p/s at 3×10^6/mL. The PBMCs (100 μL, 300 k PBMCs) were then seeded in a 96-well flat bottom microplate (Corning) that had been precoated with 100 μL of anti-CD3 antibody (10 μg/mL in PBS, Biolegend) or PBS at 4° C., one day before the assay was commenced. […]

For experiment [5], the system named is THP1-Dual™ KO-TREX1 cells. The experiment is described as follows: CellTiter-Glo cell viability in THP1 TREX1 KO cells. It is filed as cell-based. The note with it: Homo sapiens, 120 h, in the presence of 1 μM 5-aza-2′-deoxycytidine, five days, read-out: CellTiter-Glo inhibition IC50. The procedure: as §1, §2
THP1-Dual™ KO-TREX1 cells were treated with 1 μM 5-aza-2′-deoxycytidine. THP1-Dual™ KO-TREX1 cells (50 μL) were added to each well of the 384-well plate containing test compound titration at 10,000 cells/well. Cells were incubated at 37° C., 5% CO2 in a humidified incubator for five days. […] Luminescence was detected on a plate reader according to manufacturer's instructions. […]
The remaining cells were assessed for cell viability by adding 30 μl of CellTiter-Glo (Promega, G9683) solution to each well, and placed on a shaker for 10 minutes at room temperature. Luminescence was detected on a plate reader, according to manufacturer's instructions. […]

Experiment [6] addresses T2, LINE1 reverse transcriptase. Put plainly: Stable artificial-intron Cis LINE1 reporter assay (HeLa Tet-On 3G). The format is cell-based. The following applies: HeLa L1 reporter cells, doxycycline induced, 72 h; read-out: IC50 for inhibition of FLuc luminescence. The text has this:
A stable HeLa Tet-On 3G (Takara, cat no 631183) cell line expressing a bi-directional inducible LINE1 construct was generated as described in Xie, Y. et al. “Cell division promotes efficient retrotransposition in a stable L1 reporter cell line,” Mobile DNA (2013) 4:10. Single cell clones were screened for high Luciferase expression and the highest expression Firefly expressing clone was chosen for compound testing.
Test compound was serially diluted in DMSO and spotted in 96-well plates. Subsequently the HeLa L1 artificial-intron reporter cells were plated into the compound-containing wells (8,000 cells/well), and the cells were induced for reporter expression with doxycycline (Sigma cat no D9891) at a final concentration of 500 ng/mL. Luminescence was measured 72 h after plating using the Dual-Glo Luciferase Assay System (Promega cat no E2940) following the manufacturer's instructions. The Firefly Luciferase activity was used to report LINE1 activity.

A further experiment concerns KYSE-70 cells. The experiment is described as follows: Cancer cell viability assay with 3D cell colonies (CellTiter-Glo), KYSE-70. The format is cell-based. The following applies: 7 days. The procedure:
(§3) Ovarian cancer cell line SK-OV-3 cells were cultured in McCoy's 5a media containing 10% FBS. Ovarian cancer cell line OVCAR-8 cells were cultured in RPMI media containing 10% FBS. Additional cancer cell lines were cultured in the following media: • Ovarian cancer SW756 cells—L-15 (100% air)+10% FBS • Esophageal cancer TE-1 cells—RPMI-1640+10% FBS • Esophageal cancer KYSE-410 cells—RPMI-1640+5˜10% FBS • Esophageal cancer KYSE-70 cells—RPMI-1640+10% h.i.FBS. • Pharyngeal cancer FaDu cells—MEM+0.01 mM NEAA+10% FBS
(§4) Cell colony formation was tested using a 3D methylcellulose-based CellTiter-Glo (CTG) viability assay (Cat. No: G7573, Promega). Briefly, cells were inoculated into 96-well plates (at 1,500 cells per well) into a solution of 0.65% methylcellulose in growth media and incubated overnight at 37° C. in 5% CO2. The next day, serially diluted test compound (islatravir) or positive control (cisplatin, Cat. No. 6J015A89, Qilu Pharma) were added at the indicated concentrations, and the cells were incubated for 7 days. On day seven, 100 μL of CTG reagent was added, and the plates were incubated at room temperature for 20 min. Luminescence was read on an Envision Multi Label Reader according to manufacturer's instructions. IC50 values were determined using the following calculation: […]
Background: ATP-based viability assays read luminescence as a measure of living cells.

In the next experiment the test system is KYSE-410 cells. The experiment is described as follows: Cancer cell viability assay with 3D cell colonies (CellTiter-Glo), KYSE-410. The format is cell-based. The following applies: 7 days. The procedure:
as §3, §4

Another experiment has as its system OVCAR-8 cells. The experiment is described as follows: Cancer cell viability assay with 3D cell colonies (CellTiter-Glo), OVCAR-8. The format is cell-based. The following applies: 3D tumorsphere growth, 7 days. The procedure:
as §3, §4

A further experiment relates to FaDu cells. The experiment is described as follows: Cancer cell viability assay with 3D cell colonies (CellTiter-Glo), FaDu. The note with it: 7 days. It is filed as cell-based. The procedure:
as §3, §4

Another experiment deals with SK-OV-3 cells. The experiment is described as follows: Cancer cell viability assay with 3D cell colonies (CellTiter-Glo), SK-OV-3. The format is cell-based. The following applies: 3D tumorsphere growth, 7 days. The procedure: as §3, §4
The next experiment has as its system TE-1 cells. Put plainly: Cancer cell viability assay with 3D cell colonies (CellTiter-Glo), TE-1. It is filed as cell-based. The note with it: 7 days. The procedure: as §3, §4
The subject of another experiment is SW756 cells. The experiment is described as follows: Cancer cell viability assay with 3D cell colonies (CellTiter-Glo), SW756. The format is cell-based. The following applies: 7 days. The procedure:
as §3, §4

Turning to `C#C[C@]1(COP(=O)(O)OP(=O)(O)OP(=O)(O)O)O[C@@H](n2cnc3c(N)nc(F)nc32)C[C@@H]1O`, in experiment [1], the IC50 was determined as 12.4 nM.
`C#C[C@]1(CO)O[C@@H](n2cnc3c(N)nc(Cl)nc32)C[C@@H]1O` [4′-ethynyl-2-chloro-2′-deoxyadenosine]: the results for the IC50 in [2], in [5] and in experiment [6] were 8 nM, above 20000 nM and 3 nM, respectively. Further, in experiment [3], the “changes in IFN levels (% induction)” value is listed as “induction of IFN”. In addition, the “production of IFN-β” value in experiment [4] was “activated production of IFN-β”.
Turning to `N.N.[Cl][Pt][Cl]` [Cisplatin, cisplatin], the IC50 in the experiment on KYSE-70 cells is at most 10 µM; in the experiment with KYSE-410 cells, above 30 µM; in the experiment on OVCAR-8 cells it was 3.29 µM; in the experiment on FaDu cells it was at most 10 µM; in the experiment with SK-OV-3 cells, 2.24 µM; with TE-1 cells, at most 10 µM. The same compound came in with an IC50 with SW756 cells of at most 10 µM.
